This note sets out measurements from ChEMBL document CHEMBL1149029, “New cycloartanol sulfates from the alga Tydemania expeditionis: inhibitors of the protein tyrosine kinase pp60v-src” (J Nat Prod, 1994).

pIC50: −log10 of the molar value.

The nature of this experiment: Inhibition of Rous sarcoma virus pp60v-src.
`CC(C)=CC(=O)C[C@@H](C)[C@H]1CC[C@@]2(C)[C@@H]3CC[C@H]4[C@](C)(COS(=O)(=O)O)[C@@H](OS(=O)(=O)O)CC[C@@]45C[C@@]35CC[C@]12C` had a pIC50 of 4.41.
For the compound `CC(C)CC(O)C[C@@H](C)[C@H]1CC[C@@]2(C)[C@@H]3CC[C@H]4[C@](C)(COS(=O)(=O)O)[C@@H](OS(=O)(=O)O)CC[C@@]45C[C@@]35CC[C@]12C` (stereo partly drawn), the pIC50 is 4.00.
Regarding `CC(C)CC(=O)C[C@@H](C)[C@H]1CC[C@@]2(C)[C@@H]3CC[C@H]4[C@](C)(COS(=O)(=O)O)[C@@H](OS(=O)(=O)O)CC[C@@]45C[C@@]35CC[C@]12C`, the pIC50 is 4.49.

Broadly, the pIC50 is −log10 of the IC50, conventionally taken in molar units.
